How the values were obtained:
TSG101 = TSG101 expression after siRNA by semiquantitative PCR and immunoblotting in SKOV-3 cells; type: cell-based, human; settings: SKOV-3, semi-quantitative PCR and immunoblotting
Excerpt: (§1) A siRNA duplex specific for TSG101 (targeting TSG101 coding sequence 413-433) and a scrambled random control siRNA with matching GC content were obtained from Dharmacon. This specific TSG101 siRNA duplex (sense: CCUCCAGUCUUCUCUCGUCdTdT (SEQ ID NO: 7) and antisense: dTd[…] (SEQ ID NO: 8) have been successfully applied to suppress the expression of endogenous TSG101 in several high quality studies (Amit et al., 2004; Garrus et al., 2001; Hewitt et al., 2002; Ismaili et al., 2005). Transfection of the siRNAs was according to the manufacturer's instructions using Lipofectamine 2000 (Invitrogen).
Total RNA was isolated from cells using Trizol reagent (Invitrogen), and concentration was determined by absorbance at 260 nm. Semiquantitative RT-PCR was carried out using 1 μg of isolated total RNA. Primers used for RT-PCR were TSG101 forward 5′-[…]-3′ (SEQ ID NO: 1), reverse 5′-[…]-3′ (SEQ ID NO:2), p21 forward 5′-[…]-3′ (SEQ ID NO: 9), reverse 5′-CCGTTTTCGACCCTGAGAG-3′ (SEQ ID NO:10).
Cells transfected with either control or TSG101 siRNA were passaged and subsequently harvested on the appropriate days by trypsinizing cells, washing pelleted cells in PBS and then lysing cells in SDS lysis buffer. Protein concentration of cell lysates was assayed with the Bio-Rad protein assay reagent. […] Immunoblots were developed by enhanced chemiluminescence (Pierce, Rockford, Ill.).

HIF-1α mRNA = HIF-1α mRNA by RT-PCR in SKOV-3 cells; type: cell-based, human; settings: SKOV-3, 3 days following siRNA transfection
Protocol: Total RNA was isolated from cells using Trizol reagent (Invitrogen), and concentration was determined by absorbance at 260 nm. Real-Time PCR analysis was carried out using fluorescent TSG101 primers on an Applied Biosystems Prism 7000 Sequence Detection System. RT-PCR was carried out for TSG101 and HIF-1α using 1 μg of isolated total RNA under the following parameters: 94° C. 1 min, 57° C. 1 min and 72° C. 1.5 min, 35 cycles. Primers used for RT-PCR were TSG10 forward 5′-[…]-3′ (SEQ ID NO: 1), reverse 5′-TTTCCTCC TTCATCCGCCATCTC-3′ (SEQ ID NO: 2), CITED2 forward 5′-[…]-3′ (SEQ ID NO: 3), reverse 5′-[…]-3′ (SEQ ID NO: 4), HIF-1a ? forward 5′-[…]-3′ (SEQ ID NO: 5), reverse 5′-[…]-3′ (SEQ ID NO: 6).
as §1

**Q.** How did the “TSG101 expression (mRNA and protein)” value (TSG101) turn out when “TSG101 siRNA: siRNA duplex from Dharmacon targeting TSG101 coding sequence 413-433, SEQ ID NO: 7 and 8 (chain 1 CCUCCAGUCUUCUCUCGUCTT; chain 2 TTGGAGGUCAGAAGAGAGCAG; chemistry not fully specified; one strand is listed 3' to 5')” was run?
**A.** Suppression of TSG101 expression was confirmed

**Q.** What about the “HIF-1α mRNA expression” value (HIF-1α mRNA) of the same substance?
**A.** significantly down-regulated

Reference: patent publication US7897340B2, “Use of tumor susceptibilty gene 101 (TSG 101) as a prognostic and diagnostic marker” (The Board of Regents of the University of Texas System, priority 2006, dated 2011)
